The structures appear in SMILES notation. Several values for one entry are separate records, joined by “and”; a condition that tells them apart may be missing. Equal entries are not always repeated.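 Cells were grown in 96-well plates and exposed to each compound for 48 hours at five concentrations; endpoints were interpolated linearly between bracketing concentrations, or set to the highest concentration if not reached. GI50: concentration for 50% inhibition of growth. TGI is the concentration that stops growth completely.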

Here are results for 11 compounds from PubChem BioAssay (NCI).

What all share (test): inhibition of tumour cell growth, NCI panel, 48 h
In assay [1] the test system is OVCAR-3 ovarian.
In assay [2] the test system is UACC-257 melanoma.
Assay [3] has as its system KM12 colon.
Assay [4] has as its system A549 NSCLC.
The subject of assay [5] is LOX IMVI melanoma.
Assay [6] relates to OVCAR-8 ovarian.
Assay [7] concerns HCT-116 colon.
Assay [8] deals with KM20L2 colon.
Assay [9] deals with DLD-1 colon.
Assay [10] deals with SNB-78 CNS.
Assay [11] relates to M19-MEL melanoma.
The subject of assay [12] is DMS 273 small cell lung.
In assay [13] the test system is MDA-N.

As to `CC(C)(C)OC(=O)CC(NC(=O)OCc1ccccc1)NC(=O)OC(C)(C)C` (configuration not stated), the GI50 in assay [1] is 62.7 µg/mL; in assay [2], 35.8 µg/mL; in assay [3], 40.3 µg/mL; in assay [4], 35.2 µg/mL; in [5], 71.2 µg/mL; in assay [6], 57.5 µg/mL. Besides, the GI50 in assay [7] is 52.1 µg/mL.
For `C/C=C(/CCC1NCCc2c1[nH]c1ccccc21)[Si](C)(C)C` (configuration not stated), the TGI in assay [1] is > 100 µM and 13.9 µM; in assay [8], > 100 µM and 11.8 µM; in assay [9], > 100 µM and 21.6 µM; in assay [3] it was > 100 µM and 12.1 µM; in assay [4] it was > 100 µM and 29.7 µM; in assay [5] it was 15.2 µM. The TGI was > 100 µM and 24.4 µM in [6]; > 100 µM and 27 µM in assay [10]; > 100 µM and 10.1 µM in assay [11]; > 100 µM and 13.5 µM in assay [12].
Take `CC(=O)Nc1ccc2c(c1)C(=O)c1ccccc1-2`: the TGI in [1], in [2], in assay [8], in [9], in assay [3] and in assay [4] was greater than 100 µM in each case. Further, the TGI in [5], in assay [6], in [10], in [11], in [7] and in assay [12] was greater than 100 µM throughout.
For the compound `COC(=O)C1=C(O)C(C(=O)OC)[C@@]2(O)[C@@H](C(=O)OC)[C@H](C)C[C@@H]1[C@@H]2C(=O)OC` (some centres not stated), the TGI in assay [1] was 40.2 µM; in assay [2], greater than 100 µM; in [3], 58.1 µM; in assay [5], greater than 100 µM; in assay [7], greater than 100 µM; in assay [13] it was 31.4 µM.
Turning to `CC(C)(CCCCC(C)(C)NC1=NCCO1)NC1=NCCO1`, the TGI in assay [1], in assay [3], in [4], in assay [5], in assay [6] and in assay [7] was greater than 10 µM in each case. This compound registered a TGI in [13] greater than 10 µM.
`CCOC(=O)c1c(Cl)c2c(n1Cc1ccccc1)-c1oncc1CCC2`: the GI50 was 3.71 µM in assay [3], 5.26 µM in assay [5] and 4.02 µM in [7]. The TGI in assay [3], in assay [5] and in assay [7] was greater than 100 µM throughout.
For `COC(=O)C(C)NP(=O)(OCc1cccc(Cn2cnc3c(N)ncnc32)c1)Oc1ccccc1` (configuration not stated), the GI50 in [1] is 43 µM; in [2], greater than 100 µM; in assay [3], 68.2 µM; in [4], greater than 100 µM; in assay [5] it was 48.9 µM; in assay [6], greater than 100 µM. In addition, the GI50 in assay [7] is 47 µM. For the same compound, the TGI in assay [1], in assay [2], in assay [3], in assay [4], in assay [5] and in assay [6] was greater than 100 µM throughout. Further, in assay [7], the TGI was greater than 100 µM.
Regarding `O=[N+]([O-])c1ccc(N/N=C\c2cc(Br)ccc2O)nc1`, the GI50 is 0.525 µM in [1]; 1.23 µM in [3]; 2.84 µM in assay [4]; 0.472 µM in assay [5]; 0.415 µM in [6]; 0.451 µM in [7]. Besides, the TGI in assay [1] was 2.3 µM; in assay [3], 17.5 µM; in [4] it was 29.8 µM; in assay [5], 2.37 µM; in [6], 8.86 µM; in [7], 2.44 µM.
For `NS(=O)(=O)c1c(O)c2ccccc2oc1=O`, the TGI in assay [1], in [2], in assay [3], in assay [4], in assay [5] and in assay [6] was greater than 100 µM each time. The TGI in assay [7] and in assay [13] was greater than 100 µM throughout.
As to `NCCCCNOCCCN`, the TGI in assay [1], in assay [2], in assay [3], in [4], in assay [5] and in assay [6] was greater than 100 µM throughout. For the same compound, the TGI in assay [7] and in assay [13] was greater than 100 µM each time.
On to `O=S1(=O)C(=C(c2ccccc2)c2ccccc2)S(=O)(=O)c2ccccc21`, for which the TGI in [1], in assay [2], in assay [8], in [9], in [3] and in [4] was greater than 100 µM in each case. For the same compound, the TGI in assay [5] is greater than 100 µM; in assay [6], greater than 100 µM; in assay [10], 99.7 µM; in assay [11], greater than 100 µM; in assay [7], greater than 100 µM; in [12], greater than 100 µM.
